Experimental data published in patent US10954193B2 (Vanderbilt University, priority 2013, dated 2021).

Molecular target: recombinant Mcl-1 (residues 172-327) (Homo sapiens (Human), UniProt Q07820)
Assay: Bak peptide binding assay, fluorescence polarization anisotropy competition (FITC-Bak), Mcl-1;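 note: displacement of labeled Bak peptide read by fluorescence anisotropy, 10-point threefold dilutions from 20 µM top dose in 5% DMSO, 90 min incubation at room temperature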
Conditions: not given

recombinant Mcl-1 (residues 172-327), sequence (Q07820 172-327): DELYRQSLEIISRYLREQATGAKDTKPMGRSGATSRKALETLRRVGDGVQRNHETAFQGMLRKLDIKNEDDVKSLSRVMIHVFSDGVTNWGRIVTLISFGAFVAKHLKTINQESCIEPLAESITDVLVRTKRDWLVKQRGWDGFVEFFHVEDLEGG

SMILES	Ki
Cc1cc(OCCCc2cn(CCC(=O)NS(=O)(=O)c3ccccc3)c3cc(Cl)ccc23)cc(C)c1Cl [Example 37, 3-(6-chloro-3-(3-(4-chloro-3,5-dimethylphenoxy)propyl)-1H-indol-1-yl)-N-(phenylsulfonyl)propanamide]	101 to 299 nM

Same assay, conditions: Table 3, binned ranges; FITC-Bak peptide 10 nM, Mcl-1 14 nM; read-out: Ki for inhibition of Mcl-1

SMILES	Ki
CS(=O)(=O)NC(=O)CCn1cc(CCCOc2cccc3ccccc23)c2ccc(Cl)cc21 [Example 21, 3-(6-chloro-3-(3-(naphthalen-1-yloxy)propyl)-1H-indol-1-yl)-N-(methylsulfonyl)propanamide]	501 to 999 nM
Cc1cc(OCCCc2c(C(F)(F)F)n(Cc3cccc(C(=O)O)c3)c3c(-c4c(C)nn(C)c4C)cccc23)cc(C)c1Cl [Example 123, 3-((3-(3-(4-chloro-3,5-dimethylphenoxy)propyl)-2-(trifluoromethyl)-7-(1,3,5-trimethyl-1H-pyrazol-4-yl)-1H-indol-1-yl)methyl)benzoic acid]	≤ 100 nM
Cc1cc(OCCCc2cn(CC(=O)O)c3cccc(Cl)c23)cc(C)c1Cl [Example 9, 2-(4-chloro-3-(3-(4-chloro-3,5-dimethylphenoxy)propyl)-1H-indol-1-yl)acetic acid]	501 to 999 nM
Cc1cc(OCCCc2c(C)n(Cc3ccc(C(=O)O)cn3)c3c(-c4c(C)nn(C)c4C)c(Cl)ccc23)cc(C)c1Cl [Example 134, 6-((6-chloro-3-(3-(4-chloro-3,5-dimethylphenoxy)propyl)-2-methyl-7-(1,3,5-trimethyl-1H-pyrazol-4-yl)-1H-indol-1-yl)methyl)nicotinic acid]	≤ 100 nM
CCn1nc(C)c(-c2cccc3c(CCCOc4cc(C)c(Cl)c(C)c4)c(C)n(CCC(=O)NS(C)(=O)=O)c23)c1C [Example 86, 3-(3-(3-(4-chloro-3,5-dimethylphenoxy)propyl)-7-(1-ethyl-3,5-dimethyl-1H-pyrazol-4-yl)-2-methyl-1H-indol-1-yl)-N-(methylsulfonyl)propanamide]	≤ 100 nM
CS(=O)(=O)NC(=O)Cn1cc(CCCOc2cccc3ccccc23)c2ccccc21 [Example 24, N-(methylsulfonyl)-2-(3-(3-(naphthalen-1-yloxy)propyl)-1H-indol-1-yl)acetamide]	1000 to 9990 nM
COc1ccc(Oc2ccc(S(=O)(=O)NC(=O)CCn3cc(CCCOc4cc(C)c(Cl)c(C)c4)c4ccc(Cl)cc43)cc2)cc1 [Example 41, 3-(6-chloro-3-(3-(4-chloro-3,5-dimethylphenoxy)propyl)-1H-indol-1-yl)-N-((4-(4-methoxyphenoxy)phenyl)sulfonyl)propanamide]	101 to 299 nM
Cc1cc(OCCCc2cn(CCC(=O)O)c3c(-c4cn[nH]c4)cccc23)cc(C)c1Cl [Example 36, 3-(3-(3-(4-chloro-3,5-dimethylphenoxy)propyl)-7-(1H-pyrazol-4-yl)-1H-indol-1-yl)propanoic acid]	101 to 299 nM
CCC(C(=O)NS(C)(=O)=O)n1cc(CCCOc2cc(C)c(Cl)c(C)c2)c2ccccc21 (racemic) [Example 60, (±)-2-(3-(3-(4-chloro-3,5-dimethylphenoxy)propyl)-1H-indol-1-yl)-N-(methylsulfonyl)butanamide]	501 to 999 nM
O=C(O)Cn1cc(CCCOc2cccc3ccccc23)c2c(Cl)cccc21 [Example 10, 2-(4-chloro-3-(3-(naphthalen-1-yloxy)propyl)-1H-indol-1-yl)acetic acid]	1000 to 9990 nM
Cc1cc(OCCCc2c(C)n(CC(=O)O)c3c(-c4cccn4C)cccc23)cc(C)c1Cl [Example 68, 2-(3-(3-(4-chloro-3,5-dimethylphenoxy)propyl)-2-methyl-7-(1-methyl-1H-pyrrol-2-yl)-1H-indol-1-yl)acetic acid]	101 to 299 nM
Cc1cc(OCCCc2c(C)n(CCC(=O)NS(=O)(=O)c3ccc4ccccc4c3)c3c(-c4c(C)nn(C)c4C)cccc23)cc(C)c1Cl [Example 89, 3-(3-(3-(4-chloro-3,5-dimethylphenoxy)propyl)-2-methyl-7-(1,3,5-trimethyl-1H-pyrazol-4-yl)-1H-indol-1-yl)-N-(naphthalen-2-ylsulfonyl)propanamide]	≤ 100 nM
Cc1cc(OCCCc2c(C(F)(F)F)n(CC(=O)N3CCN(CC(=O)O)CC3)c3c(-c4c(C)nn(C)c4C)cccc23)cc(C)c1Cl [Example 121, 2-(4-(2-(3-(3-(4-chloro-3,5-dimethylphenoxy)propyl)-2-(trifluoromethyl)-7-(1,3,5-trimethyl-1H-pyrazol-4-yl)-1H-indol-1-yl)acetyl)piperazin-1-yl)acetic acid]	≤ 100 nM
CCn1nc(C)c(-c2cccc3c(CCCOc4cc(C)c(Cl)c(C)c4)c(C)n(CCC(=O)NS(=O)(=O)c4ccccc4)c23)c1C [Example 87, 3-(3-(3-(4-chloro-3,5-dimethylphenoxy)propyl)-7-(1-ethyl-3,5-dimethyl-1H-pyrazol-4-yl)-2-methyl-1H-indol-1-yl)-N-(phenylsulfonyl)propanamide]	≤ 100 nM
Cc1cc(OCCCc2c(C(F)(F)F)n(CCc3ccc(C(=O)O)cc3)c3c(-c4c(C)nn(C)c4C)cccc23)cc(C)c1Cl [Example 118, 4-(2-(3-(3-(4-chloro-3,5-dimethylphenoxy)propyl)-2-(trifluoromethyl)-7-(1,3,5-trimethyl-1H-pyrazol-4-yl)-1H-indol-1-yl)ethyl)benzoic acid]	≤ 100 nM
CS(=O)(=O)NC(=O)CCn1cc(CCCOc2cccc3ccccc23)c2c(Cl)cccc21 [Example 23, 3-(4-chloro-3-(3-(naphthalen-1-yloxy)propyl)-1H-indol-1-yl)-N-(methylsulfonyl)propanamide]	1000 to 9990 nM
Cc1cc(OCCCc2cn(CCC(=O)O)c3c(-c4cc[nH]n4)cccc23)cc(C)c1Cl [Example 35, 3-(3-(3-(4-chloro-3,5-dimethylphenoxy)propyl)-7-(1H-pyrazol-3-yl)-1H-indol-1-yl)propanoic acid]	101 to 299 nM
Cc1cc(OCCCc2c(C)n(CCC(=O)NS(=O)(=O)c3cccc([N+](=O)[O-])c3)c3c(-c4c(C)nn(C)c4C)cccc23)cc(C)c1Cl [Example 92, 3-(3-(3-(4-chloro-3,5-dimethylphenoxy)propyl)-2-methyl-7-(1,3,5-trimethyl-1H-pyrazol-4-yl)-1H-indol-1-yl)-N-((3-nitrophenyl)sulfonyl)propanamide]	≤ 100 nM
Cc1cc(OCCCc2c(C)n(CCC(=O)NS(C)(=O)=O)c3c(-c4c(C)nn(C)c4C)cccc23)cc(C)c1Cl [Example 85, 3-(3-(3-(4-chloro-3,5-dimethylphenoxy)propyl)-2-methyl-7-(1,3,5-trimethyl-1H-pyrazol-4-yl)-1H-indol-1-yl)-N-(methylsulfonyl)propanamide]	≤ 100 nM
Cc1cc(OCCCc2c(C)n(CCC(=O)NS(=O)(=O)c3ccccn3)c3c(-c4c(C)nn(C)c4C)cccc23)cc(C)c1Cl [Example 94, 3-(3-(3-(4-chloro-3,5-dimethylphenoxy)propyl)-2-methyl-7-(1,3,5-trimethyl-1H-pyrazol-4-yl)-1H-indol-1-yl)-N-(pyridin-2-ylsulfonyl)propanamide]	≤ 100 nM
Cc1cc(OCCCc2cn(CCC(=O)O)c3cc(Cl)ccc23)cc(C)c1Cl [Example 13, 3-(6-chloro-3-(3-(4-chloro-3,5-dimethylphenoxy)propyl)-1H-indol-1-yl)propanoic acid]	101 to 299 nM
Cc1cc(OCCCc2cn(CCC(=O)O)c3c(-c4cccnc4)cccc23)cc(C)c1Cl [Example 33, 3-(3-(3-(4-chloro-3,5-dimethylphenoxy)propyl)-7-(pyridin-3-yl)-1H-indol-1-yl)propanoic acid]	501 to 999 nM
